Tests used:
[1] = test system: rhIL-17A stimulated G-CSF production in normal human keratinocytes (NHK); test: NHK G-CSF assay with rhIL-17A stimulation; format: cell-based; conditions: for inhibition of IL-17 stimulated G-CSF production: concentrations tested, FIGS. 2A and 2C; for dose dependent G-CSF levels: various doses, FIG. 3
[2] = test system: IL-β secretion by LPS stimulated hPBMCs; conditions: Wadsworth et al. 1999, read-out: IC50 (Literature), inhibition of IL-β secretion; cited from earlier work
[3] = test system: IL-17A-stimulated gene panel in NHKs; test: QuantiGene Plex gene panel expression, NHK stimulated with recombinant IL-17A; format: cell-based, human; conditions: NHKs stimulated with recombinant IL-17A, FIGS. 5A and 5B
Method: (§1) A panel of IL-17A-stimulated genes was identified, initially through microarray experiments and later confirmed by RT-PCR, to assess modulators of the IL-17 pathway as shown in Table 2. Expression levels of the genes in the panel were measured using QuantiGene® Plex Gene Expression assay in human keratinocytes treated with human recombinant IL-17A and compounds as described in Example 1.
After the 24 hour incubation with IL-17A with and without compounds, 50 μl Lysis buffer (QuantiGene, ThermoFisher) was added to each well containing 100 μl cells. The plate was covered and incubated for 30 minutes in a VorTemp set at 50-55° C., 170 rpm to lyse the cells. The plate was then kept frozen at −80° C. On the day of QuantiGene experiments, samples and reagents were prepared and assay was conducted according the manufacturer's protocol (QuantiGene, ThermoFisher). At the final step, the sample plate was read on a Luminex MagPix® instrument (Luminex; Austin, Tex.) for fluorescent intensity signals.
The raw expression value of a given gene (g) in a sample (S) was quantified as the median of raw fluorescent intensity of the corresponding probe. Normalization factor of each sample S was determined by the raw expression of four housekeeping genes, ACTB, GAPDH, HPRT1, and PPIB, as the ratio of the geometric mean (geomean) of the four housekeeping genes in sample S vs. the geomean of the four housekeeping genes among all samples. The normalized expression value of each gene in sample S was further quantified as the raw expression value divided by the normalization factor in sample S.
Changes in expression of gene g in keratinocytes in response to IL-17A stimulation was calculated as the ratio of the geomean of its normalized expression values in IL-17A stimulated samples vs. that in unstimulated samples. For each gene g, the relative expression value in sample S (Rel_Exp_S) was further determined by its normalized expression in sample S (Norm_Exp_S) and the geomeans of its normalized expression in IL-17A stimulated samples (GM_Norm_Exp_Stim) and unstimulated samples (GMNorm_Exp_UnStim), using formula as: Rel_Exp_S=(Norm_Exp_S−GM_Norm_Exp_UnStim)/(GM_Norm_Exp_Stim−GM_Norm_Exp_UnStim).

[4] = test system: TNFa secretion by LPS stimulated hPBMCs; conditions: Wadsworth et al. 1999, read-out: IC50 (Literature), inhibition of TNFa secretion; cited from earlier work
[5] = test system: normal human keratinocytes (NHK); test: CellTiter-Glo Luminescent Cell Viability Assay of NHK cells; format: cell-based; conditions: FIG. 2B
Method: To test whether treatment with IL-17 or compounds affected cell viability, cells were tested with CellTiter-Glo® Luminescent Cell Viability Assay (Promega; Madison, Wis.) according to manufacturer's protocol.
The substrate vial and the buffer solution were equilibrated at room temperature before reconstitution. The lyophilized substrate solution was reconstituted by adding the appropriate volume of buffer to the substrate vial. After brief mixing, equal volumes of the reconstituted reagent were added to the volume of media in each well of the plate containing cells. The plate was shaken briefly to mix and incubated at room temperature for 10 minutes then luminescent signal was read using an Envision plate reader.
Percent cell viability was calculated as:
% viability=((Sample RLU/No stimulation Avg,RLU)*100).

[6] = test system: Th17 conditioned media stimulated gene panel in NHKs; test: QuantiGene Plex gene panel expression, NHK stimulated with Th17 conditioned media; format: cell-based, human; conditions: FIG. 6
Method: (§2) Peripheral blood mononuclear cells (PBMCs) were isolated from human whole blood using Ficoll-Paque density gradient centrifugation (Ficoll-Paque, GE, 17-1440-03) using SepMate tubes (StemCell technologies, 85450). […] CD4+ T cells were isolated through manual magnetic labeling and cell separation (LS column, Miltenyi Biotec, 130-042-401) following vendor protocol (Miltenyi Biotec, 130 533). CD4+ T cells were seeded on 24-well plates at 2×10^6 cells/mL in 500 μL of RPMI Media (RPMI 1640, Hyclone, SH30096.01) supplemented with 10% FBS, penicillin-streptomycin (Sigma, P0781-100 ml), L-glutamine (Sigma, G7513-100ML), and 2-Mercaptoethanol (Gibco, 21985-023). […] The level of human IL-17A in Th17 conditioned media was determined using DuoSet ELISA kits following the vendor protocol (R&D Systems, DY317-05, DY5194-05, DY1335B-05). Human IL-17A was detected in Th17 conditioned media, while unstimulated, undifferentiated CD4+ T cells had no detectable level of IL-17A in the supernatant (FIG. 1).
as §1, with “1. […]” for “1.”

[7] = test system: Th17 conditioned media stimulated G-CSF production in normal human keratinocytes (NHK); test: NHK G-CSF assay with Th17 conditioned media stimulation; format: cell-based; conditions: for inhibition of G-CSF production: NHK, Th17 conditioned media, FIG. 4A; for IC50: Th17 conditioned media stimulated NHK (footnote 15)
Method: In order to test potential modulators of the IL-17 pathway, normal human keratinocytes (NHK) were incubated with either recombinant IL-17A or Th17 conditioned media and potential inhibitor compounds, and then levels of granulocyte colony-stimulating factor (G-CSF) in the cell supernatant were measured as described in detail below.
as §2, with “21985-023). Th17 polarization media was prepared in RPMI media and 250 μL was added to each well at a final concentration of: anti-CD3/anti-CD28 beads, prepared using T cell activation/expansion kit (Miltenyi Biotec, 130-091-441), at 2× cell number per well, anti-human interleukin-4 (IL-4) [10 ug/mL], anti-human interferon gamma (IFNγ) [10 ug/mL] antibodies (ThermoFisher, 16-7048-85, 16-7318-85), human IL-2 [60 U/mL] (Pepro Tech, 200-02), human IL-1β [10 ng/mL], human IL-23 [10 ng/mL], human IL-6 [50 ng/mL], and human TGFβ [12 ng/mL] (R&D Systems, 201-LB-010, 1290-IL-010, 206-IL-010, 240-B-010).” for “21985-023).”, “1). […]” for “1).”
After overnight culture, cell supernatant was carefully collected for G-CSF detection, and cells were further analyzed for viability or gene expression
G-CSF levels were measured using the Human G-CSF Homogeneous Time Resolved Fluorescence (HTRF) Assay kit (Cisbio, Cat. No. 63ADK055PEB1; Codolet, France) according to the manufacturer's protocol. G-CSF is detected in a sandwich assay format using different specific antibodies, one labeled with Eu3+-Cryptate (donor) and the second with d2 (acceptor). When the dyes are in close proximity, the excitation of the donor with a light source (laser or flash lamp) triggers a Fluorescence Resonance Energy Transfer (FRET) towards the acceptor, which in turn fluoresces at a specific wavelength (665 nm). […]

[8] = Homo sapiens, Keratinocyte, rhIL-17A stimulated NHK assay (footnote 14), 5 ng/ml rhIL-17A
[9] = rhIL-17A stimulated NHK assay (footnote 14), 5 ng/ml rhIL-17A

Row | Compound | IC50 [1, 8] [nM] | expression of the gene panel [3] | inhibition of IL-17 stimulated G-CSF production ([1]; NHK, rhIL-17A) | dose dependent G-CSF levels ([1]; NHK, rhIL-17A) | expression of the gene panel [6] | inhibition of G-CSF production [7] | IC50 [7] [nM] | IC50 [1, 9] [nM] | other results
1 | Cc1nonc1C(=O)N[C@H](c1cn2ncc([C@H](NC(=O)CCC(F)(F)F)C3CC3)cc2n1)C1CCC(F)(F)CC1 (stereo in doubt) [IL-17Ai-3] | 72.8 | – | – | – | – | – | – | – | –
2 | O=C(CCC(F)(F)F)N[C@@H](c1ccn2cc([C@@H](NC(=O)c3conc3CCC(F)(F)F)C3CCC(F)(F)CC3)nc2n1)C1CC1 [IL-17Ai-5] | 86.2 | – | – | – | – | – | – | – | –
3 | OCCC#Cc1nc(-c2ccc(F)cc2)c(-c2ccncc2)n1CCCc1ccccc1 [Modulator P38i, RWJ 67657] | – | did not lead to an overall reduction in expression of the gene panel | did not inhibit | does not inhibit G-CSF levels | – | – | – | – | IC50 [2]: 11 nM; IC50 [4]: 3 nM
4 | Cc1nc(Nc2n[nH]c3c2CN(C(=O)N[C@H](CN(C)C)c2ccccc2)C3(C)C)c2sccc2n1 [PAKi, PF-3758309] | – | did not lead to an overall reduction in expression of the gene panel | did not inhibit | some dose-dependent inhibition of G-CSF production with much lower potency compared to IL-17A inhibitors | – | – | – | – | cell toxicity ([5]; highest dose of 20 μM): toxic to the cells; cell toxicity ([5]; tested concentrations other than 20 μM PAK inhibitor): well tolerated; IC50 ([1]; Homo sapiens, Keratinocyte): 2270 nM; G-CSF production ([1]; NHK, rhIL-17A, highest dose of 20 μM): reduced G-CSF production
5 | Brodalumab | – | inhibited expression of the gene panel in a dose-dependent manner | inhibited G-CSF production at all concentrations tested | – | inhibited expression of the gene panel in a dose-dependent manner | inhibited G-CSF production | 0.082 | 0.07 | –
6 | Secukinumab | – | inhibited expression of the gene panel in a dose-dependent manner | inhibited G-CSF production at all concentrations tested | – | inhibited expression of the gene panel in a dose-dependent manner | inhibited G-CSF production | 0.2 | 0.2 | –
